Reference: US11066709B2, “Methods for diagnosing and treating cancer by means of the expression status and mutational status of NRF2 and downstream target genes of said gene” (Genentech, Inc., priority 2016, dated 2021)
Residues, ends and D or L forms follow the SMILES beside them. *: point of attachment. Cbz = O=C(OCc1ccccc1)*

Assays:
Type in all cases: cell-based
KEAP1 mutant cell lines = experiment: Viability of KEAP1 wild-type versus KEAP1 mutant cell lines
Description: FIG. 56A is a graph showing the IC50 of the glutaminase inhibitor BPTES on KEAP1 wild-type cell lines versus KEAP1 mutant cell lines.
FIG. 56B is a graph showing the viability of KEAP1 wild-type cell lines versus KEAP1 mutant cell lines in response to the glutaminase inhibitor BPTES.
FIG. 57A is a graph showing the IC50 of the […] buthionine sylphoximine (BSO) on KEAP1 wild-type cell lines versus KEAP1 mutant cell lines.
FIG. 57B is a graph showing the viability of KEAP1 wild-type cell lines versus KEAP1 mutant cell lines in response to BSO.

full-length NRF2 = experiment: Effect of KEAP1 on NRF2 expression in transfected 293 cells (Western blot); conditions: 293 cells transfected with NRF2 and KEAP1 plasmids
Method: FIG. 23 is a set of immunoblots showing the effect of NRF2 exon 2 and exon 2+3 deletions on KEAP1 interaction. 293 cells were transfected with plasmids expressing FLAG-NRF2, Δe2 FLAG-NRF2, Δe2+3 FLAG-NRF2 or HA-KEAP1. 48 hours after transfection, cells were lysed, and either lysates (top gel) or anti-FLAG immunoprecipitations were analyzed by Western blotting using the indicated antibodies.
Plasmid DNAs were transfected into cells using Lipofectamine 2000 (ThermoFisher) and OptiMEM (Gibco) as recommended by manufacturer protocol. Lysates were prepared 2-3 days post transfection. Expression plasmids used were pRK5.NRF2, pRK5.NRF2δe2, pRK5.NRF2δe2,3, pRK5.NRF2.FLAG and pRK5.KEAP1.HA.

[1] = system: KEAP1 mutant cell lines and KEAP1 wild-type cell lines; experiment: Growth in soft agar (anchorage independent conditions) of a panel of NSCLC cell lines
Method: (§1) FIG. 62 is a series of photographs showing colony formation of KEAP1 mutant cell lines and KEAP1 wild-type cell lines grown in soft agar (anchorage independent conditions) in the presence of IGF1 R inhibitors linsitinib and NVP-AEW541, and in the presence or absence of glutathione.
(§2) Expression of IGF1 R was greater in KEAP1 mutant NSCLC cells relative to KEAP1 wild-type NSCLC cell lines. To test the effect of IGF1 R inhibition on KEAP1 mutant and KEAP1 wild-type cells, cell lines were treated with linsitinib, a potent and selective IGF1 R small molecule inhibitor. […] However, this compound was very potent at inhibiting colony growth of A549 cells in soft agar, having an IC50 of about 20 nM.

A549 cells = experiment: Colony growth of A549 cells in soft agar; conditions: Homo sapiens, read-out: IC50 for inhibiting colony growth of A549 cells in soft agar
Method: as §1, §2

[2] = system: three wild-type and three mutant KEAP1 NSCLC cell lines; experiment: Proliferation of wild-type and mutant KEAP1 NSCLC cell lines
[3] = system: KEAP1 mutant and KEAP1 wild-type cell lines; experiment: Colony formation in soft agar with or without NRF2 knockdown
Method: Representative areas of the plate were photographed. FIG. 44 is a series of bar graphs showing the quantified colony formation for each cell type and treatment group shown in FIG. 43. Error bars represent standard deviation from biological triplicate wells. FIG. 48 is a series of photographs showing A549 cells expressing NRF2sh10 shRNA plated into regular tissue culture dishes (top) or soft agar (bottom). Cells were treated with either vehicle or 500 ng/ml doxycycline, in the presence or absence of 2 mM N-acetyl cysteine (NAC).

[4] = system: reactive oxygen species (ROS); experiment: ROS levels measured by H2DCF; conditions: exogenous glutathione, dichlorofluorescein staining
Description: FIG. 49 is bar graph showing reactive oxygen species (ROS) levels under indicated conditions as measured using 2′,7′-dichlorodihydrofluorescein diacetate (H2DCF). Error bars represent standard deviation from triplicate wells.
FIG. 53 is a histogram showing increasing ROS levels in response to shNRF2 and/or erastin, as measured by H2DCF.

Compound: O=C(Cc1ccccc1)Nc1nnc(CCSCCc2nnc(NC(=O)Cc3ccccc3)s2)s1 [BPTES]
- preferential toxicity for KEAP1 mutant cell lines (KEAP1 mutant cell lines): did not display preferential toxicity

Compound: CCCCS(=N)(=O)CCC(N)C(=O)O (stereo not drawn) [BSO, buthionine sylphoximine]
- preferential toxicity for KEAP1 mutant cell lines (KEAP1 mutant cell lines): did not display preferential toxicity

Compound: CC(C)C[C@@H](C=O)NC(=O)[C@H](CC(C)C)NC(=O)[C@H](CC(C)C)NC(=O)OCc1ccccc1 [MG132] (Cbz-Leu-Leu-Leu-aldehyde)
- inhibitory effect of KEAP1 on full-length NRF2 expression (full-length NRF2): mostly abolished

Compound: C[C@]1(O)C[C@@H](c2nc(-c3ccc4ccc(-c5ccccc5)nc4c3)c3c(N)nccn32)C1 [linsitinib]
- selectivity of growth inhibition for KEAP1 mutant cell lines [1]: selective growth inhibition in soft agar of this compound in KEAP1 mutant cell lines
- IC50 (A549 cells): ~0.02 µM
- effect on proliferation [2]: little effect on proliferation

Compound: N[C@@H](CCC(=O)N[C@@H](CS)C(=O)NCC(=O)O)C(=O)O [reduced glutathione, glutathione]
- ability to form colonies in soft agar ([3]; all tested cell lines, 1 mM reduced glutathione): generally increased the ability of all tested cell lines to form colonies in soft agar
- rescue of the consequences of NRF2 knockdown ([3]; soft agar, dox-induced NRF2 shRNA): unable to rescue the consequences of NRF2 knockdown
- ROS levels [4]: reduce reactive oxygen (ROS) levels
